Experiment [1] has as its system subcutaneous T cell lymphoma. The experiment can be described thus: Phase I trial of CG-47: clinical response of lymphoma. It counts as in vivo, human. The source says: As part of the clinical development of CG-47, Pathologica performed analysis on blood samples from a subset of patients currently enrolled in a Phase I trial of the safety of the investigational polyamine CG-47. The trial recruited patients who have failed conventional therapy for various lymphomas. The patients received increasing amounts of CG47 for 5 days every three weeks by infusion. The trial was a dose escalation trial in which the first 3 patients received the lowest dose, the next three a higher dose etc. One patient, a person with subcutaneous T cell lymphoma, received 4 doses of 50 mg/m^2 of CG-47 over a 12 week period. […] Relapse of the lymphoma then occurred and a final sample was obtained. Levels of CD14-16++macrophages and the LC5-CI values obtained from the baseline and various subsequent samples are presented in FIG. 10. At presentation the patient had elevated CD14-16% s (˜50%) and a strongly positive LC5-CI score (6.2). After the first cycle of CG-47 the patient entered a clinical remission of their cancer that lasted for the […] of CG-47. During their clinical remission both the CD14-16++ levels and the LC5-CI scores normalized. After the 4th cycle of CG-47 the patient experienced a relapse in their cancer and in the post relapse samples CD14-16++ levels were again elevated (50%) and their LC5-CI value had reverted to a positive score (12.9). […]

A further experiment has as its system CD14-16++macrophages. The experiment can be described thus: Levels of CD14-16++ macrophages in patient blood by flow cytometry. It counts as in vivo, human. The settings on record: same patient. The source says: FIG. 10: LC5-CI and Signature values in cutaneous T-cell lymphoma patient—the percent of CD14 cells also staining with antibodies to CD16 by flow cytometry (filled triangles) is plotted (left y axis) along with the LC5-CI (open triangles) determined for the same samples (right y axis). The samples include the baseline sample obtained prior to the administration of the first cycle of CG-47 (baseline, x axis), the samples obtained prior to the patient receiving the 2nd, 3rd, and 4th cycle of CG-47 (cy2, cy3, and cy4, respectively) and the final sample obtained when the patient experienced a relapse (ReLps).
As part of the clinical development of CG-47, Pathologica performed analysis on blood samples from a subset of patients currently enrolled in a Phase I trial of the safety of the investigational polyamine CG-47. The trial recruited patients who have failed conventional therapy for various lymphomas. The patients received increasing amounts of CG47 for 5 days every three weeks by infusion. The trial was a dose escalation trial in which the first 3 patients received the lowest dose, the next three a higher dose etc. One patient, a person with subcutaneous T cell lymphoma, received 4 doses of 50 mg/m^2 of CG-47 over a 12 week period. […] Relapse of the lymphoma then occurred and a final sample was obtained. […]
(In general: In flow cytometry, cells or beads pass a laser one at a time.)

Experiment [2] deals with G1P3, GPR43, IFIT2, ORM1, TNFSF10. Nature of the experiment: LC5-CI quantitative RT-PCR classification index on PBMCs. The class given is in vivo, human. The settings on record: same patient.
From the text: Aliquots of the RNA preparations were then RT-PCR amplified using quantitative real time methods employing a Light-Cycler^36. The signals obtained were normalized against the signal obtained with primers for β-actin according to the formula Ctactin−Ctgene=NSig where Ct=the threshold cycle for the indicated gene and NSig=the normalized signal.
Therefore, we constructed a “weighted voting” scheme using the methods described by Golub and co-workers^37 for 10 of the most promising primer sets. ALS and control patients were divided into training and test sets and the actin normalized signal for each sample with each primer set was determined as described above. Then the voting weights (modified Rs) were calculated using the test samples according to the formula Mod R=(Mean ALS−Mean CON)/(StDev ALS+StDev CON) calculated using 13 ALS samples & 11 controls.
Next the inflection point or the mid point between the ALS and control samples is calculated according to MID=(MeanALS+MeanCON)/2
Then the signal for the individual primer (ICV) is calculated according to ICV=Mod R(Mean NSig−Mid)
The predictive power of the various primers was then evaluated using the test set of samples. […]
The next experiment relates to cancer. To be noted: response not universal; cited from earlier work.
The conditions of experiment [3]: ALS patients; cited from earlier work.

These results are taken from patent US20070202515A1, “Promac signature application” (PATHOLOGICA, LLC., priority 2005, published 2007).

Structures are written as SMILES.

In the case of `CCNCCCNC/C=C\CNCCCNCC.Cl.Cl.Cl.Cl` [CG-47], the duration of remission result in experiment [1] (began after administration of the first dose, 50 mg/m^2, same patient) is “approximately 10 weeks”. The “clinical response of lymphoma” value in experiment [1] (one patient, 4 doses of 50 mg/m^2 over a 12 week period by infusion) was “very significant remission”. The “CD14-16++ levels in post relapse samples” value in the experiment with CD14-16++macrophages (relapse after the 4th cycle) is recorded as 50%. Also, in the experiment with CD14-16++macrophages (at presentation elevated (~50%)), the “CD14-16++ levels during clinical remission” value is recorded as “normalized”. Further, the “LC5-CI value in post relapse samples” value in experiment [2] (relapse after the 4th cycle) was found to be 12.9. In addition, in experiment [2] (at presentation strongly positive (6.2)), the “LC5-CI scores during clinical remission” value is recorded as “normalized”.

For the molecule `CC(C=NNC(=N)N)=NNC(=N)N.Cl.Cl.O` [MGBG, Methylglyoxal bis(guanylhydrazone) dihydrochloride hydrate], the “efficacy against cancer in clinical trials” value in the experiment on cancer is on record as “some level of efficacy against cancer”.

For the molecule `C/C(=N\N=C(N)N)c1cc(NC(=O)CCCCCCCCC(=O)Nc2cc(/C(C)=N/N=C(N)N)cc(/C(C)=N/N=C(N)N)c2)cc(/C(C)=N/N=C(N)N)c1.Cl.Cl.Cl.Cl` [CNI-1493], in the experiment with cancer, the “efficacy against cancer in clinical trials” value is “some level of efficacy against cancer”.

Take `Nc1nc2ccc(OC(F)(F)F)cc2s1` [Riluzole]: the “effect on disease progression” value in experiment [3] is “only modest slowing of disease progression”.
